Series [1] relates to 20-hydroxyecdysone activity. Particulars: drosophila cells in culture; cited from earlier work.
The test system of series [2] is differentiated NIH-3T3/L1 adipocytes. The experiment in a line: Loss of lipid-positive differentiated adipocytes (oil red O, A510; Nile Red). The class given is cell-based. How it is done: FIG. 8. Prieurianin induced loss of differentiated adipocytes. NIH-3T3/L1 preadipocytes were induced into differentiation. Five days following differentiation, cells were treated with various concentrations (0.5, 1, and 2 μM) of prieurianin for an additional five days and followed by staining with oil red O. Micrographs were obtained from representatives of triplicate experiments. Isopropanol extracts of positively stained cells were quantified spectrophotometrically at 510 nm as shown in histogram on the right. Results are means±S.E. of triplicate experiments.
FIG. 19. Effects of bufalin on preadipocyte differentiation, and dedifferentiation/delipidation in adipo-cytes. NIH-3T3/L1 cells were induced into differentiation and simultaneously treated with either 1 μM of bufalin or 2 μM of prieurianin. Differentiated cells were stained with Nile Red. Alternatively, preadipocytes were induced into differentiation and five days following differentiation, cells were treated with either 1 μM of bufalin or 2 μM of prieurianin for an additional five days and followed by staining with Nile Red. Stained cells were evaluated by fluorescence microscopy.
To assess whether prieurianin has any effect on the differentiated adipocytes, the preadipocytes were allowed to differentiate into adipocytes and then were further cultured for about five days before treating the adipocytes with prieurianin for an additional five to six days, followed by oil red O staining for the presence of lipid accumulating adipocytes.

A short description of series [3]: Cytotoxicity in cell culture studies. The class given is cell-based. To be noted: data not shown.
Series [4] deals with PLTP promoter. The experiment in a line: PLTP-promoter luciferase reporter in HepG2 and transgenic HepG2/PLTPpLuc cells. The class given is cell-based, human. Particulars: luciferase reporter, HepG2 or HepG2/PLTPpLuc cells. The text has this:
FIG. 2A. A 1.5 Kb PLTP promoter fused to a luciferase reporter was transactivated by topotecan dose-dependently.
FIG. 2B. Activation of PLTP promoter by topotecan in HepG2 transgenic cells containing the PLTP-promoter luciferase reporter gene fused to the neomycin selectable marker cassette and stably transfected into HepG2 cells to generate the transgenic line (Top panel). Dose-dependent induction of PLTP promoter by topotecan (Bottom panel). Results are the means S.E. of three experiments after normalization with Renilla luciferase.
FIG. 3A. Dose-dependent transactivation of the PLTP promoter by prieurianin in the HepG2 transgenic cells. Results are the means S.E. of three experiments after normalization with Renilla luciferase.
FIG. 3B. […] 1, Control; 2. […] Results are the means±S.E. of triplicate experiments.
FIG. 11. Transactivation of PLTP promoter by cytotoxic and non-cytotoxic drugs. Survey of transactivation of the PLTP promoter by various cytotoxic and non-cytotoxic drugs in the HepG2 transgenic cells was conducted. Results are the means S.E. of three experiments.
FIG. 12. Effects of trichostatin A (TSA) on transactivation of PLTP promoter by prieurianin. Dose response activation of PLTP promoter by prieurianin either in the presence or the absence of 200 nM TSA. Results are the means S.E. of three experiments.
To determine whether non-cytotoxic small molecules could induce PLTP expression, the inventor herein subcloned the PLTP-promoter luciferase reporter into a vector containing a neomycin (G418)-resistance selectable marker and generated a transgenic HepG2 cell line, which harbors the PLTP-promoter luciferase reporter, by stable gene transfection and selection with G418.
The transgenic cells were then screened with a library of small molecules derived from natural products.
In general terms: Reporter assays use an easily measured gene product as a stand-in for the process of interest.

The subject of series [5] is PPARγ. The experiment in a line: PPARγ response element luciferase reporter in L1 preadipocytes. The class given is cell-based. Particulars: prieurianin 2 μM. How it is done:
(§1) FIG. 18. Effects of prieurianin on C/EBPα and β and PPARγ mediated transcription in adipogenesis. Response elements corresponding to C/EBPα and β and PPARγ are cloned into the pGL3 basic luciferase reporter plasmid. L1 preadipocytes were contransfected with the reporter plasmid either in the presence or the absence of the corresponding transcription factors cloned into expression vector, followed by treatment with 2 μM of prieurianin. Cells were harvested for luciferase assay 15-24 hrs later. Results are means±S.E. of triplicate experiments.

Series [6] has as its system PLTP. The series can be described thus: Serum PLTP protein by Western blot in normal C57BL/6J mice. The class given is in vivo. To be noted: normal C57BL/6J mice, 0, 2, 5 and 10 mg/kg. On the procedure:
(§2) FIG. 10. Release of adiponectin and PLTP by preadipocytes and adipocytes, and in serum of normal mice. Preadipocytes (B and D) were treated with 2 μM of prieurianin and media collected after 36 hrs for Western blot analysis of either adiponectin (A and B) or PLTP (C and D). Alternatively, five days following differentiation, conditioned media of adipocyets (A and C) were collected for Western analysis. E. Serum of normal C57BL/6J mice given prieurianin or topotecan (0, 2, 5, and 10 mg/kg) was analyzed by Western blot for PLTP.

Series [7] relates to C/EBPα. The experiment in a line: C/EBPα response element luciferase reporter in L1 preadipocytes. The class given is cell-based. Particulars: prieurianin 2 μM. On the procedure: as §1
Series [8] has as its system PLTP. The experiment in a line: PLTP release into conditioned media (Western blot). The class given is cell-based. How it is done:
as §2
The expression and secretion of PLTP by preadipocytes and adipocytes was also assessed. Thus, preadipocytes produced and released both the low and the high molecular weight forms of PLTP, while adipocytes secreted only the low molecular weight form (see FIGS. 10C and 10D) into the conditioned media.

For series [9], the system named is C/EBPβ. The experiment in a line: C/EBPβ response element luciferase reporter in L1 preadipocytes. The class given is cell-based. To be noted: prieurianin 2 μM. How it is done: as §1
Series [10] can be described thus: Body weight in leptin-receptor deficient db/db mice. The class given is in vivo. How it is done: FIG. 15A. Groups of 10 db/db mice were given either 3 or 5 mg/kg of prieurianin i.p. daily for 30 days.
The effects of prieurianin were tested in three additional mouse models of obesity including the genetically hyperinsulinemic leptin-receptor deficient db/db, the Ceacam−/− glucose intolerant/diabetic, and the diet-induced obese mice. Prieurianin was administered intraperitoneally (i.p.) to 12-14 week-old db/db mice daily (3 or 5 mg/kg) for 30 days. The diet-induced obese Ceacam−/− diabetic mice were fed a high fat diet for 4 weeks for fattening, followed by prieurianin treatment (3 or 5 mg/kg) for 3 weeks. Vehicle treated controls received equivolume injections of Captisol (CyDex Inc., Lenexa, Kans.). Body weight and food intake were measured every three days, and blood samples were collected at the end of the experiment.

“Also recorded” adds a separate entry of the source.

Turning to `C=C1[C@@H]([C@@]2(C)[C@@H](OC(C)=O)CC(=O)O[C@](C)(COC(C)=O)[C@@H]2C(=O)OC)[C@@H](OC=O)[C@H](OC(=O)[C@H](O)[C@H](C)CC)[C@@]2(C)[C@H](c3ccoc3)CC(=O)[C@]12O` [prieurianin], the “antagonism against 20-hydroxyecdysone activity” value in [1] was “antagonism against 20-hydroxyecdysone activity”. Further, in series [2] (2 μM), the “number of lipid positive cells (oil red O stain A510 absorbance)” value is “almost absent and reduced to a level comparable to the undifferentiated control”. Moreover, the “number of oil red O stained cells” value in series [2] (adipocytes treated five days after differentiation, 0.5, 1 and 2 μM) was “profound dose-dependent reduction in the number of oil red O stained cells”. The cytotoxicity result in series [3] is listed as “relatively non-cytotoxic compared with topotecan; also recorded: relatively non-cytotoxic compared to topotecan”. In [4], the “transactivation of PLTP promoter” value was “exhibited the strongest transactivation of the PLTP promoter, and showed induction of PLTP in a dose-dependent manner”. Further, the “transactivation potential of PPARγ” value in series [5] is on record as “inhibits the transactivation potential”. In [6], the “serum PLTP protein levels” value is given as “a rise in the serum PLTP protein levels”. Also, the “transactivation potential of C/EBPα” value in series [7] is “inhibits the transactivation potential”. The “release of PLTP by adipocytes” value in series [8] (adipocytes) is on record as “induced an increase in the release of only the low molecular weight form of PLTP”. In addition, in series [8] (preadipocytes), the “release of PLTP by preadipocytes” value is on record as “release of the low but not the high molecular form of PLTP was reduced”. Further, in series [9], the “transactivation potential of C/EBPβ” value is reported as “inhibits the transactivation potential”. Also, the weight loss entry in [10] (3 or 5 mg/kg i.p. daily) is “No weight loss was observed”. In addition, the “attenuation of weight gain” value in [10] (over three weeks, vs untreated or vehicle-treated controls) was found to be 50%.

The record behind these values is US20100284925A1, “Small Molecule Intervention for Obesity” (priority 2006, published 2010).
